Experimental findings from a melting point compilation (Tetko et al.; mined from patent text by program, amines drawn as free bases though some values may be those of a salt) are described below.

`O=C(O)COc1cccc(NCc2nc(-c3ccccc3)c(-c3ccccc3)o2)c1` had a melting point of 146 to 151 °C.
Regarding `Cc1[nH]n(C2CCOC2)c2nc(-c3ccncc3)nc(=O)c1-2` (configuration not stated), the melting point is 251 °C.
The same measure for `CCCOc1ccc(CC(=O)NCC(=O)O)cc1Cl`: 110 to 112 °C.
The same measure for `CC(Oc1cc(O)ccn1)C(F)(F)F` (configuration not stated): 67 to 69 °C; for `Clc1cc(Cl)c(CBr)c(Cl)c1`: 51 to 52 °C.
The same measure for `Cc1cccc(-c2sc(N)nc2-c2ccnc(-c3ccc(OCC(=O)N4CCOCC4)cc3)c2)n1`: 172 °C; for `COC(=O)C(O)C(CC(C)C)NC(=O)C(CC(C)C)NC(=O)C(CC(=O)N1CCOCC1)Cc1cccc2ccccc12` (mixture of isomers): 69 to 70 °C; for `CC(=O)Nc1ccc(C)c(C=O)n1`: 202 °C.
`CC(=O)c1cc(C)cc(NC(=O)c2nnnn2Cc2ccccc2)c1O`: the melting point lay within 183 to 184 °C.
Compound `NC(=O)Cc1ccc2c(c1)C(=O)Cc1ccccc1O2` returned a melting point of 152 to 154 °C.
To `CC(C)(O)c1ccc(Cl)nc1` belongs 67 to 71 °C; to `OP(O)C1(NC(c2ccccc2)c2ccccc2)CCCCC1`, 194 to 196 °C; to `NS(=O)(=O)c1cc2c(cc1Cl)C(=O)N(CCN1CCOCC1)C2=O`, 218 to 219 °C.
Regarding `CCOC(=O)C(Cc1ccc(OCCN2COc3ccccc3C2=O)cc1)OCC` (configuration not stated), the melting point fell in the range of 76 to 78 °C.
Turning to `Nc1cc(O)nc(SCc2cccc(F)c2F)n1`, the melting point is 218 to 221 °C.
The same measure for `Cc1ccn(-c2ccc(S(C)(=O)=O)cc2)c1-c1ccc(Cl)cc1`: 173 to 174 °C; for `CC(O)Cc1cc2c(cc1C(=NNc1ccc(Cl)nn1)c1ccc([N+](=O)[O-])cc1)OCO2` (configuration not stated): 135 to 137 °C; for `CCN(CC)c1ccc(/C=C/C(=O)CC(=O)/C=C/c2ccc3cc[nH]c3c2)c(OCc2ccccn2)c1`: 92 to 96 °C.
To `CN(C)CCNC(=O)c1cccc(N)c1` belongs 97 to 100 °C; to `Cc1ccc(Nc2nc(-c3ccc(OC(F)(F)F)cc3)cs2)nc1`, 205 to 207 °C.
The compound `Cc1cc(CCCCCSc2ccc(C3=NCCO3)cc2)on1` yielded a melting point of 89 to 91 °C.
The same measure for `COc1cccc(C=C2N=C(c3ccc([N+](=O)[O-])cc3)OC2=O)c1OC`: 203 to 208 °C; for `O=CNCC1CC2C3CC4C2C4C13` (configuration not stated): 225 to 226 °C.
To `O=C(NCP(=O)(O)O)c1ccccc1` belongs 171 to 173 °C; to `Cc1nc2cccc3n(CCCCNS(=O)(=O)CC(F)(F)F)c(=O)c1n23`, 116 to 118 °C; to `Cc1coc(NC(=S)Nc2c(C)cccc2Cl)n1`, 222 °C.
To `O=C(CCCCCCCCC(=O)CC(=O)c1ccccc1)CC(=O)c1ccccc1` belongs 108 to 111 °C.
`CC(C)Cn1cnc2c(N)nc3ccc(OCc4ccccc4)cc3c21` displayed a melting point of 214 to 216 °C.
The same measure for `CC1NC(=O)NN=C1c1ccc(Cl)cc1` (configuration not stated): 221 to 222 °C; for `Oc1cccc(N(c2ccccc2)c2ccc(-c3ccc(N(c4ccccc4)c4cccc(O)c4)cc3)cc2)c1`: 113 to 117 °C.
To `CC(C)Nc1cccnc1N1CCN(C(=O)c2ccc(C(=O)N3CCN(CCOCCO)CC3)cc2)CC1` belongs 92 to 93 °C.
The same measure for `CC(Sc1cc(C(C)(C)C)c(O)c(C(C)(C)C)c1)C(=O)CC(C)(O)C(C)Sc1cc(C(C)(C)C)c(O)c(C(C)(C)C)c1` (configuration not stated): 123 to 128 °C; for `CCC(OC(C)=O)c1nc2c(C(F)(F)F)cccc2c(O)c1C(=O)Nc1nccs1` (configuration not stated): 245 °C.
In turn, `COC(=O)NC1=NC(c2cccc(O)c2)CN1` (configuration not stated) had a melting point of 180 to 183 °C.
The same measure for `CCOc1ccc(-c2nc(OC)ccc2N2CCC(c3ccc(OC)cc3)N(C)CC2)cc1` (configuration not stated): 103 to 107 °C; for `CCc1cc2c(=O)n3cc(C#N)ccc3nc2s1`: 223 to 224 °C.
The same measure for `CCCCCCCC(=O)Nc1ccc(OCC(O)CNC(C)C)c(C#N)c1` (configuration not stated): 116 to 118 °C; for `COc1ccc2c3c(c(=O)oc2c1)CN(Cc1ccccn1)CC3`: 140 to 142 °C; for `CCCCCCCC(=O)c1ccc(CCC(CCOC(C)=O)(CCOC(C)=O)NC(C)=O)cc1`: 83 to 86 °C.
The same measure for `CC(=O)Nc1ccc2c(-c3ccccc3)c([N+](=O)[O-])oc2c1`: 212 to 214 °C; for `O=C(NCC1CCN(C[C@H]2COc3ccc(Cl)cc3O2)CC1)c1ccccn1`: 110 to 112 °C.
With `CN(C)C=C(SCCN1C(=O)c2ccccc2C1=O)C(=O)c1ccc(F)cc1`, the melting point was 108 to 111 °C.
The same measure for `Cc1cccc(C)c1OCC1CN=C(N)O1` (configuration not stated): 114 °C; for `O=C(O)COCc1ccccc1`: 81 to 83 °C; for `CCOCc1nc2c(c(C)c(C)n3nnnc23)n1CCNS(C)(=O)=O`: 218 to 222 °C.
On to `Cc1nsnc1-n1cc(C(=O)O)c(=O)c2cc(F)c(Cl)nc21`, for which the melting point lay within 247 to 249 °C.
To `CC(=O)OCC(=O)C1=CCC2C3CCC4=CC(=O)CCC4(C)C34OC4CC12C` (configuration not stated) belongs 129 to 130 °C.
To `CCc1ccc(OCCCCCN2CCN(c3nccs3)CC2)cc1` belongs 125 to 127 °C; to `CCCCc1nc2cc(C(=O)O)ccc2n1Cc1ccccc1Cl`, 238 to 239 °C.
The same measure for `CCOc1ccccc1-c1ncc(C(=O)O)c(=O)[nH]1`: 168 to 184 °C; for `O=C(O)C=Cc1cc(N2CCNCC2)ccc1[N+](=O)[O-]`: 229 to 237 °C; for `O=C1c2ccc(-c3nnn[nH]3)cc2C(=O)c2cc(N3CCCCC3)ccc21`: 297 to 298 °C.
As for `OCCCc1cncn1Cc1noc2ccccc12`, the melting point was in the range of 129 to 131 °C.
The same measure for `O=C1CCCN1C(=O)Oc1ccc(Cl)cc1`: 99 to 100 °C; for `O=C(Cn1c(-c2nonc2NCCCO)nc2ccccc21)c1ccc(Cl)cc1`: 166 to 169 °C.
To `C=Cc1ccc(-c2ccccc2F)cc1` belongs 38 °C; to `CCCCOc1ccc2nc(C(=O)O)c(OCc3ccccc3)cc2c1`, 108 to 110 °C; to `O=C(O)Cc1ccc(C(=O)O)cc1`, 235 to 237 °C.
To `Oc1ccc(CNC2=NCCc3ccccc32)cc1` belongs 177 to 179 °C; to `COc1ccc2c(c1)OC(CN1CC=C(c3c[nH]c4ccccc34)CC1)CO2` (configuration not stated), 166 to 168 °C.
In turn, `NC(=O)c1ccc(NC(=O)C(CS)Cc2ccccc2)cc1` (configuration not stated) returned a melting point of 195 to 197 °C.
In turn, `O=C(O)C=Cc1cc(Cl)ccc1C(=O)O` yielded a melting point of 200 to 202 °C.
Consider `O=C1NC(=O)c2c1cc1ccc3c(c1c2C1CCCCC1)OCO3`, for which the melting point lay within 305 to 308 °C.
Regarding `Cc1nc2c(c3c1[nH]c1ccccc13)C(=NO)CC(C)C2` (configuration not stated), the melting point is 282 to 283 °C.
The compound `CN1CCOc2ccc(S(=O)(=O)Nc3ccc(CCl)cc3I)cc21` returned a melting point of 109 to 110 °C.
The same measure for `COC(=O)c1ccccc1NC(=O)c1ccc(Br)c(C)c1`: 123 °C; for `CC(C)(C)OC(=O)N1CCN(c2c(F)cc(N3CC(CN=[N+]=[N-])OC3=O)cc2F)CC1` (configuration not stated): 115 to 117 °C.
The same measure for `O=C1CCC(N2Cc3c(OCc4cc5cc(N6CCCCC6)ccc5o4)cccc3C2=O)C(=O)N1` (configuration not stated): 242 to 244 °C.
To `CCOC(=O)/C=C/c1sc(-n2cnc3ccccc32)nc1C(C)C` belongs 229 to 230 °C; to `CN1C(=O)CCC2(C)c3ccc(SCc4cc5ccccc5cn4)cc3CCC12` (single isomer, unassigned; (+)), 129 to 130 °C; to `O=C(O)CCCc1ncccc1NS(=O)(=O)c1ccccc1`, 156 to 157 °C.
`COc1cc(C)c2c(c1OCC(=O)O)CC(C)(c1ccccc1)C2` (configuration not stated) returned a melting point of 151 to 152 °C.
Turning to `Cn1c(CN2C(=O)C3(COc4cc5c(cc43)OCO5)c3ccccc32)nc2ccccc21` (configuration not stated), the melting point was over 250 °C.
The same measure for `O=C(O)CCOc1cccc2ncccc12`: 217 to 219 °C; for `CON=Cc1ccc2c(c1)c1c(n2Cc2cccc(F)c2)CCC(NC(=O)C(C)C)C1` (configuration not stated): 180 to 182 °C.
`Cc1ccsc1C(=O)c1sc(Nc2ccc(N3CCN(C)CC3)cc2)nc1N` registered a melting point of 237 to 238 °C.
To `Cc1c(Cl)cc(O)cc1Cl` belongs 92 to 93 °C; to `Cc1cc(N2CCC3(CC2)OCCO3)nn2cnnc12`, 156 to 157 °C.
With `COc1cc2c(cc1Nc1ncc(Cl)c(Nc3ccccc3S(C)(=O)=O)n1)CCN(CC(=O)N(C)C)CC2`, the melting point lay within 77 to 99 °C.
In turn, `COC(=O)CCC(=O)c1ccc(O)c(Cl)c1` registered a melting point of 85 to 89 °C.
The same measure for `COc1ccnc(C(C)Sc2nc3cc(OC(F)(F)C(F)F)ccc3[nH]2)c1` (configuration not stated): 78 to 81 °C.
The same measure for `NC(=O)CNC(=O)c1cncc(-c2cccc3cc(Cc4cccc(C(F)(F)F)c4)sc23)c1`: 122 to 123 °C.
To `CC1(C)OC[C@H](c2cnc(NC(=O)C(C)(C)C)cn2)O1` belongs 142 to 143 °C.
Compound `Cc1ccn(-c2ccc(C(=O)c3cccc4c3Nc3ncccc3CN4)c(F)c2)n1` returned a melting point of 122 to 125 °C.
As to `NCC1(O)CCCc2c1ccc1c2OCO1` (configuration not stated), the melting point lay in the range of 140 to 142 °C.
The same measure for `CCCc1nc(-n2cccc2)c(C(=O)OCC)[nH]1`: 134 to 135 °C; for `CCOC(=O)CCC(=O)OCC(=O)c1ccc(Cl)cc1`: 50 to 51 °C.
In the case of `CC(C)(C)OC(=O)NCCc1cccc(C#N)n1`, the melting point lay within 79.1 to 80.3 °C.
Regarding `COc1ccc(Cn2c(=O)n(C3CCCCC3)c3cc(Cl)ccc32)c(OC)c1`, the melting point came out at 112 °C.
To `CCOC(=O)C1=C(CF)NC(CF)=C(C(=O)OCC)C1c1cccc([N+](=O)[O-])c1` belongs 113 to 114 °C; to `CNC(=O)c1cnn(-c2ccc(Cl)cc2C(F)(F)F)c1C#N`, 162 to 164 °C.
Compound `Cn1c([N+](=O)[O-])cnc1C(Cl)Cl` showed a melting point of 52 °C.

As a reminder, the melting point is the temperature, or range, at which the solid turns liquid.
